Laboratory results reported in patent publication US10370343B2, “[6,6] Fused bicyclic HDAC8 inhibitors” (FORMA Therapeutics, Inc., priority 2015, dated 2019).
pIC50: −log10 of the molar value.

target: T1, Recombinant N-terminal GST tag full-length human HDAC8 (Homo sapiens, UniProt Q9BY41); assay: HDAC8 probe binding assay, time resolved fluorescence (TRF) format; settings: compounds grouped by IC50 range (Table 2)
T1 construct: Recombinant N-terminal GST tag full-length human HDAC8; purchased SignalChem H90-30G-1000; host or cells: baculovirus in Sf9 insect cells
T1 sequence (Q9BY41 1-377): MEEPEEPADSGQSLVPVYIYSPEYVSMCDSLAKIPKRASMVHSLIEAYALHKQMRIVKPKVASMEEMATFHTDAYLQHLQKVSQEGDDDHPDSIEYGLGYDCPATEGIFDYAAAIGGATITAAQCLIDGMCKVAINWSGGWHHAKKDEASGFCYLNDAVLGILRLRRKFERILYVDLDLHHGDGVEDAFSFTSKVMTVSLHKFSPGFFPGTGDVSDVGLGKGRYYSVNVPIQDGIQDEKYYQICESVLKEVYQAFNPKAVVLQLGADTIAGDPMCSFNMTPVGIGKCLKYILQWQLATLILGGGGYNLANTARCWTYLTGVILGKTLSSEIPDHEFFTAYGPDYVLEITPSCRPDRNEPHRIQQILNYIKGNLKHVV
Experimental: The HDAC8 probe binding assay was performed using a time resolved fluorescence (TRF) assay format. Recombinant N-terminal GST tag full-length human HDAC8 was expressed and purified from baculovirus in Sf9 insect cells (SignalChem, #[…]-1000). […] Plates were incubated for 16 hours at room temperature before time resolved fluorescence was read on the Envision (Excitation at 340 nm, and Emission at 485 nm and 535 nm, Perkin Elmer). Data from HDAC8 Assays were reported as percent inhibition (inh) compared with control wells based on the following equation: % inh=1-((FLU-AveLow)/(AveHigh-AveLow)) where FLU=measured time resolved fluorescence. AveLow=average time resolved fluorescence of no enzyme control (n=32). AveHigh=average time resolved fluorescence of DMSO control (n=32). IC50 values were determined by curve fitting of the standard 4 parameter logistic fitting algorithm included in the Activity Base software package: IDBS XE Designer Model205. Data is fitted using the Levenburg Marquardt algorithm. Ranges of IC50 values for compounds of the invention are disclosed in Table 2: Table 2. provides the compounds arranged according to […] determined in a time resolved fluorescence (TRF) assay. The compounds are separated into four groups: […]

| SMILES | pIC50 |
| --- | --- |
| O=C(NO)c1ccc2c(c1)N(CC1CCc3ccccc3O1)C(=O)CO2 (racemic) [Compound I-184, (+/−)-4-(chroman-2-ylmethyl)-N-hydroxy-3-oxo-3,4-dihydro-2H-benzo[b][1,4]oxazine-6-carboxamide] | 7.00 to 7.60 |
| O=C(NO)c1ccc2c(c1)N(CC1COc3ccccc3O1)C(=O)CO2 (racemic) [Compound I-185, (+/−)-4-((2,3-dihydrobenzo[b][1,4]dioxin-2-yl)methyl)-N-hydroxy-3-oxo-3,4-dihydro-2H-benzo[b][1,4]oxazine-6-carboxamide] | ≥ 7.60 |
| O=C(NO)c1ccc2c(c1)N(Cc1ccc(C(=O)N3CCCCC3)cc1)C(=O)CO2 [Compound I-150, N-hydroxy-3-oxo-4-(4-(piperidine-1-carbonyl)benzyl)-3,4-dihydro-2H-benzo[b][1,4]oxazine-6-carboxamide] | 7.00 to 7.60 |
| COc1ccc(CN2C(=O)COc3c(F)cc(C(=O)NO)cc32)cc1 [Compound I-163, 8-fluoro-N-hydroxy-4-(4-methoxybenzyl)-3-oxo-3,4-dihydro-2H-benzo[b][1,4]oxazine-6-carboxamide] | 7.00 to 7.60 |
| O=C(NO)c1cc(F)c2c(c1)N(Cc1ccc(-n3cccn3)cc1)C(=O)CO2 [Compound I-164, 4-(4-(1H-pyrazol-1-yl)benzyl)-8-fluoro-N-hydroxy-3-oxo-3,4-dihydro-2H-benzo[b][1,4]oxazine-6-carboxamide] | 7.00 to 7.60 |
| COc1ccc(CN2C(=O)OCc3ccc(C(=O)NO)cc32)cc1 [Compound I-165, N-hydroxy-1-(4-methoxybenzyl)-2-oxo-2,4-dihydro-1H-benzo[d][1,3]oxazine-7-carboxamide] | ≥ 7.60 |
| O=C(NO)c1ccc2c(c1)N(Cc1ccc(-n3cccn3)cc1)C(=O)OC2 [Compound I-166, 1-(4-(1H-pyrazol-1-yl)benzyl)-N-hydroxy-2-oxo-1,4-dihydro-2H-benzo[d][1,3]oxazine-7-carboxamide] | ≥ 7.60 |
| COc1ccc(CN2CC(C(=O)N(C)C)Oc3ccc(C(=O)NO)cc32)cc1 (centres unmarked) [Compound I-169, N6-hydroxy-4-(4-methoxybenzyl)-N2,N2-dimethyl-3,4-dihydro-2H-benzo[b][1,4]oxazine-2,6-dicarboxamide] | 7.00 to 7.60 |
| CNC(=O)C1CN(Cc2ccc(OC)cc2)c2cc(C(=O)NO)ccc2O1 (centres unmarked) [Compound I-170, N^6-hydroxy-4-(4-methoxybenzyl)-N^2-methyl-3,4-dihydro-2H, benzo[b][1,4]oxazine-2,6-dicarboxamide] | 7.00 to 7.60 |
| COc1ccc(CN2CC(C(=O)N3CCOCC3)Oc3ccc(C(=O)NO)cc32)cc1 (centres unmarked) [Compound I-171, N-hydroxy-4-(4-methoxybenzyl)-2-(morpholine-4-carbonyl)-3,4-dihydro-2H-benzo[b][1,4]oxazine-6-carboxamide] | 7.00 to 7.60 |
| COc1ccc(CN2CC(C(=O)NC3CCOCC3)Oc3ccc(C(=O)NO)cc32)cc1 (centres unmarked) [Compound I-172, N6-hydroxy-4-(4-methoxybenzyl)-N2-(tetrahydro-2H-pyran-4-yl)-3,4-dihydro-2H-benzo[b][1,4]oxazine-2,6-dicarboxamide] | 7.00 to 7.60 |
| O=C(NO)c1ccc2c(c1)N(Cc1cnc3c(c1)OCCO3)C(=O)CO2 [Compound I-173, 4-((2,3-dihydro-[1,4]dioxino[2,3-b]pyridin-7-yl)methyl)-N-hydroxy-3-oxo-3,4-dihydro-2H-benzo[b][1,4]oxazine-6-carboxamide] | 7.00 to 7.60 |
| O=C(NO)c1ccc2c(c1)N(Cc1ccc(-n3cncn3)cc1)C(=O)CO2 [Compound I-175, 4-(4-(1H-1,2,4-triazol-1-yl)benzyl)-N-hydroxy-3-oxo-3,4-dihydro-2H-benzo[b][1,4]oxazine-6-carboxamide] | ≥ 7.60 |
| O=C(NO)c1ccc2c(c1)N(Cc1ccc(N3CCCC3)cc1)C(=O)CO2 [Compound I-176, N-hydroxy-3-oxo-4-(4-(pyrrolidin-1-yl)benzyl)-3,4-dihydro-2H-benzo[b][1,4]oxazine-6-carboxamide] | ≥ 7.60 |
